Measurements: patent publication US7138411B2, “Substituted benzopyran derivatives for the treatment of inflammation” (G.D. Searle & Co., priority 1997, dated 2006)

Structure (SMILES) | melting point [°C]
CC(C)(C)CC(=O)c1ccc2c(c1)C=C(C(=O)O)C(C(F)(F)F)O2 (centres unmarked) [Example 60, 6-(2,2-Dimethylpropylcarbonyl)-2-trifluoromethyl-2H-1-benzopyran-3-carboxylic acid] | 198 to 200
COc1c(Cl)cc2c(c1Cl)OC(C(F)(F)F)C(C(=O)O)=C2 (centres unmarked) [Example 61, 6,8-Dichloro-7-methoxy-2-trifluoromethyl-2H-1-benzopyran-3-carboxylic acid] | 195.6 to 199.1
O=C(O)C1=Cc2ccc3ccccc3c2OC1C(F)(F)F (centres unmarked) [Example 62, 2-Trifluoromethyl-2H-naphtho[1,2-b]pyran-3-carboxylic acid] | 245.9 to 248.6
O=C(O)C1=Cc2cc(S(=O)(=O)NCc3ccco3)ccc2OC1C(F)(F)F (centres unmarked) [Example 69, 6-[[(2-Furanylmethyl)amino]sulfonyl]-2-(trifluoromethyl)-2H-1-benzopyran-3-carboxylic acid] | 170 to 173
O=C(O)C1=Cc2cc(S(=O)(=O)Cc3ccccc3)ccc2OC1C(F)(F)F (centres unmarked) [Example 70, 6-[(Phenylmethyl)sulfonyl]-2-(trifluoromethyl)-2H-1-benzopyran-3-carboxylic acid] | 172 to 176
O=C(O)C1=Cc2cc(S(=O)(=O)NCCc3ccccc3)ccc2OC1C(F)(F)F (centres unmarked) [Example 71, 6-[[(Phenylethyl)amino]sulfonyl]-2-(trifluoromethyl)-2H-1-benzopyran-3-carboxylic acid] | 187 to 190
O=C(O)C1=Cc2ccc(Cl)cc2OC1C(F)(F)F (centres unmarked) [Example 72, 7-Chloro-2-trifluoromethyl-2H-1-benzopyran-3-carboxylic acid] | 175.2 to 177.6
O=C(O)C1=Cc2cc(Cl)cc(I)c2OC1C(F)(F)F (centres unmarked) [Example 73, 6-Chloro-8-iodo-2-(trifluoramethyl)-2H-1-benzopyran-3-carboxylic acid] | 220 to 223
O=Cc1cc(Cl)cc2c1OC(C(F)(F)F)C(C(=O)O)=C2 (centres unmarked) [Example 76, 6-Chloro-8-Formyl-2-(trifluoromethyl)-2H-1-benzopyran-3-carboxylic acid] | 243.3 to 252.4

The remaining lines, values ahead:

melting point [°C] | Structure (SMILES)
198.6 to 199.9 | CC(C)(C)c1cc2c(cc1Br)C=C(C(=O)O)C(C(F)(F)F)O2 (centres unmarked) [Example 77, 6-Bromo-7-(1,1-dimethylethyl)-2-(trifluoromethyl)-2H-1-benzopyran-3-carboxylic acid]
177.5 to 180.8 | O=C(O)C1=Cc2cc(CO)ccc2OC1C(F)(F)F (centres unmarked) [Example 80, 6-Hydroxymethyl-2-(trifluoromethyl)-2H-1-benzopyran-3-carboxylic acid]
167 to 168.6 | CCc1ccc2c(c1)OC(C(F)(F)F)C(C(=O)O)=C2 (centres unmarked) [Example 85, 7-Ethyl-2-trifluoromethyl-2H-1-benzopyran-3-carboxylic acid]
148.3 to 151 | C[S+]([O-])c1ccc2c(c1)C=C(C(=O)O)C(C(F)(F)F)O2 (centres unmarked) [Example 86, 6-(Methylsulfinyl)-2-(trifluoromethyl)-2H-1-benzopyran-3-carboxylic acid]
205.7 to 207.1 | O=C(O)C1=Cc2c(Cl)ccc(Cl)c2OC1C(F)(F)F (centres unmarked) [Example 87, 5,8-Dichloro-2-(trifluoromethyl)-2H-1-benzopyran-3-carboxylic acid]
170.6 to 173.2 | CC(C)(C)c1ccc2c(c1)C=C(C(=O)O)C(C(F)(F)F)O2 (centres unmarked) [Example 89, 6-(1,1-Dimethylethyl)-2-(trifluoromethyl)-2H-1-benzopyran-3-carboxylic acid]
76.1 to 80.1 | Cc1ncc(CO)c2c1OC(C(F)(F)F)C(C(=O)O)=C2 (centres unmarked) [Example 90, 5-(Hydroxymethyl)-8-methyl-2-(trifluoromethyl)-2H-pyrano[2,3-c]pyridine-3-carboxylic acid]
245.8 to 247.8 | O=C(O)C1=Cc2cc3c(cc2OC1C(F)(F)F)OCO3 (centres unmarked) [Example 92, 6-(Trifluoromethyl)-6H-1,3-dioxolo[4,5-g][1]benzopyran-7-carboxylic acid]
